The results in this text go back to paper PMC11219871, “Epigenetic-based differentiation therapy for Acute Myeloid Leukemia” (Nature Communications, 2024).

SMILES strings stand for the structures.

Data set [1] is described as follows: Plasma protein binding (equilibrium dialysis). It counts as in vitro ADME. To be noted: pH 7.4, Human. Here is the method:
This study was conducted by Equilibrium Dialysis at Wuxi (http://www.wuxi.com/). HT Dialysis plate (Model HTD 96 b, Cat# 1006) and the dialysis membrane (molecular weight cutoff of 12–14 kDa, Cat# 1101) were purchased from HT Dialysis LLC (Gales Ferry, CT). Human plasma (BioIVT, # […]2P2N) and CD-1 mouse plasma (Beijing Vital River Laboratory Animal Technology Co., Ltd.) were thawed prior to experiments under running cold tap water and centrifuged at 3320 × g for 5 min to remove any clots, and the pH was checked. Only plasma from pH 7.0 to 8.0 was used. The dialysis membrane was pretreated according to the manufacturer’s instructions. Test compounds and warfarin (control) were assayed at a final concentration of 2 μM. Aliquots of 50 μL loading plasma (matrix) containing test or control compound in triplicate were transferred to Sample Collection Plates, respectively. The samples were matched with opposite blank buffer to obtain a final volume of 100 μL with a volume ratio of plasma (matrix) to dialysis buffer (1:1, v-v) in each well immediately. […] Concentrations of test compounds in the starting solution (before dialysis), the plasma side of the membrane, and the buffer side of the membrane were quantified by LC-MS/MS using a peak area ratio of analyte/internal standard. The fraction of unbound, bound, and recovery were calculated. […]
For orientation: In equilibrium dialysis free small molecules cross a membrane that holds back macromolecules.

A further data set has as its target T1, hERG potassium channels (Homo sapiens, UniProt Q12809).
T1 construct: host or cells: CHO cells
Description: hERG blockade assay (whole-cell patch clamp, CHO cells). It counts as cell-based. To be noted: for IC50: read-out: hERG binding: IC50. The method, then: This study was conducted at Wuxi (http://www.wuxi.com/), using CHO cells with stable expression of hERG potassium channels (Sophion Biosciences, Ballerup, Denmark). Cells were cultured (F12 medium, supplemented with 10% FBS, 1% Geneticin® selective antibiotic, 89 μg/mL hygromycin B) in a humidified and air-controlled (5% CO2) incubator at 37 °C ± 2 °C. Test compounds were diluted at different concentrations (0.3 μM–30μM), with a final DMSO concentration in an extracellular solution of <0.3%. The external solution consisted of 2 mM CaCl2, 1 mM MgCl2, 4 mM KCl, 145 mM NaCl, 10 mM glucose and 10 mM HEPES at pH 7.3–7.4. The internal solution consisted of 5.37 mM CaCl2, 1.75 mM MgCl2, 120 mM KCl, 10 mM HEPES, 5 mM EGTA and 4 mM Na2ATP at pH 7.2–7.3. The assay was performed at room temperature using the whole-cell patch clamp techniques controlled with Patchmaster Pro software. For quality control, minimum seal membrane resistance was set at 500 MOhms and the minimum/maximum specific hERG current (pre-compound) was 400 pA/3000 pA. A 100-nM amount of cisapride was used as the positive control to evaluate the reliability of the test system. Results are the average of two biological replicates.
For orientation: hERG is a cardiac potassium channel; its block is linked to QT prolongation.

The target of the next data set is T2, HDAC8 (Homo sapiens, UniProt Q9BY41).
T2 construct: purchased Eurofins (contracted assay service)
T2 sequence (Q9BY41 1-377): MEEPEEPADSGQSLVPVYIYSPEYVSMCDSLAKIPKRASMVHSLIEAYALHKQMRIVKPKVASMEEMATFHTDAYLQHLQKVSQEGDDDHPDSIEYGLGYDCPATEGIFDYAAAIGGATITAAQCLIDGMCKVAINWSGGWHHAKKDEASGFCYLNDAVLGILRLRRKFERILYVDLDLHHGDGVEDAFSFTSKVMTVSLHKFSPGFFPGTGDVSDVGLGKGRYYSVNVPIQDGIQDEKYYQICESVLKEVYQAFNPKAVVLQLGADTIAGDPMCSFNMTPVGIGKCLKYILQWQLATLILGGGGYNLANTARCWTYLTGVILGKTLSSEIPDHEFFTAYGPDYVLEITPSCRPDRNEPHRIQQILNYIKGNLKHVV
Description: HDAC assay (Eurofins). It counts as biochemical.

The target in another data set is T3, HDAC5 (Homo sapiens, UniProt Q9UQL6).
T3 construct: purchased Eurofins (contracted assay service)
Description: HDAC assay (Eurofins). It counts as biochemical.

T3 sequence (Q9UQL6 whole entry): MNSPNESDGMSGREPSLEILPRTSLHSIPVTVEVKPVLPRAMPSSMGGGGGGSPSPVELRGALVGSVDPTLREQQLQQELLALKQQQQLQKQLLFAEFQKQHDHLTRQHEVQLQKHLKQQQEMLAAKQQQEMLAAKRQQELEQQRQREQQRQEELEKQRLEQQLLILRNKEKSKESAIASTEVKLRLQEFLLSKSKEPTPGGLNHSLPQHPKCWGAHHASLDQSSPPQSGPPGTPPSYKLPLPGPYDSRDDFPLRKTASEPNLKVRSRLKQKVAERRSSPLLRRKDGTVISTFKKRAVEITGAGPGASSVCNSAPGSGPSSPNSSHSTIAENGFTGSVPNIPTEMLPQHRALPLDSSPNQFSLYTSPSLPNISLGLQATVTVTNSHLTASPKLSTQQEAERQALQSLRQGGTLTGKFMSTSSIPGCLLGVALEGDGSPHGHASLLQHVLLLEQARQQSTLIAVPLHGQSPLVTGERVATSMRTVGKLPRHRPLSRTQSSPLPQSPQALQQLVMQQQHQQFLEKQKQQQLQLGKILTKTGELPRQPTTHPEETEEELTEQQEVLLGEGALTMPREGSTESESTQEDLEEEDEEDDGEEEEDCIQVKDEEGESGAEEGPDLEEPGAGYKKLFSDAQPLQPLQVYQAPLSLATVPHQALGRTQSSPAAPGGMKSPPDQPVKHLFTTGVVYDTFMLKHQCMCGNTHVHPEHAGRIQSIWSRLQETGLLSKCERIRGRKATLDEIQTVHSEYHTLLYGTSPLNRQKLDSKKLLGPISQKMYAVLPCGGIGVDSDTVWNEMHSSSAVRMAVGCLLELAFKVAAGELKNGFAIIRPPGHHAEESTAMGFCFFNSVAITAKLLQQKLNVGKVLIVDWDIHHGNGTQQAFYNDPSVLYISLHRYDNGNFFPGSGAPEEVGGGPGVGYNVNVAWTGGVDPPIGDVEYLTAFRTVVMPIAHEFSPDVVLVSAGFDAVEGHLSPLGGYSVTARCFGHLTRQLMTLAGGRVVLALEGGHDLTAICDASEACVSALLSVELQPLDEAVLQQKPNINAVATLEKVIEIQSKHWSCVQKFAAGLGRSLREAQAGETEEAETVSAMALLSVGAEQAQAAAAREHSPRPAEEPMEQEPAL
T1 sequence (Q12809 whole entry): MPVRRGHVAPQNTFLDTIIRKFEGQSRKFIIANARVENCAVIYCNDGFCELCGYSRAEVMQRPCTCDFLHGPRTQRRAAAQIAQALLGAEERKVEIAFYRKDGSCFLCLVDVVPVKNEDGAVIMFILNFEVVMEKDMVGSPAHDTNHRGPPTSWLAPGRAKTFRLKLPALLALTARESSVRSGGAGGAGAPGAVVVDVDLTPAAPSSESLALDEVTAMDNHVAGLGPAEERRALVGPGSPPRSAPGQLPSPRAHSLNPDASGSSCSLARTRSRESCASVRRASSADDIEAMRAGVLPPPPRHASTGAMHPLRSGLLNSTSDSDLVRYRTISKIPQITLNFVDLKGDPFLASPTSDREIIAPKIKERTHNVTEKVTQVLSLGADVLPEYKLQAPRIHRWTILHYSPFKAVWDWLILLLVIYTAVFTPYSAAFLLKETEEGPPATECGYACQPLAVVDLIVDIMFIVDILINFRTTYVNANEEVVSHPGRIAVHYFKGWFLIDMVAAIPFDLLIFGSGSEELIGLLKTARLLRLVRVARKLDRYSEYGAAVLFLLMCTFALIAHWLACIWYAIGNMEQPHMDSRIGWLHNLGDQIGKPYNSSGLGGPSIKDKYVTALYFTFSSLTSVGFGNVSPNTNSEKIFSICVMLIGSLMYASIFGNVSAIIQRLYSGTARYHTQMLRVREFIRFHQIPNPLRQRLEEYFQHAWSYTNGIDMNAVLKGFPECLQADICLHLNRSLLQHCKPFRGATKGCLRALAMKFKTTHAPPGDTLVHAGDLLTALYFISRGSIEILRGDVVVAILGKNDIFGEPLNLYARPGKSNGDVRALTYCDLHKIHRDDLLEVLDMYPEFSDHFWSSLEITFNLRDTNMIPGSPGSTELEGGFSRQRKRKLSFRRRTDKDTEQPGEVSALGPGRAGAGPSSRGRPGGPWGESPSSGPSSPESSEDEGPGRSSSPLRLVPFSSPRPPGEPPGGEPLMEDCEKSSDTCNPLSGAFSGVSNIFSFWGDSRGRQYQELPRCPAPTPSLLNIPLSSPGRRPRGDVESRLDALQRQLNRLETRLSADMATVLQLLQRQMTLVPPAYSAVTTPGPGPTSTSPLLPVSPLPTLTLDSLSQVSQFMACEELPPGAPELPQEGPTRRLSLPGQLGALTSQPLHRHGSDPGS

As for `COc1cc2nc(-c3ccc(C)o3)cc(NCC3CCN(c4ncc(C(=O)NO)cn4)CC3)c2cc1OC` [CM-444, 2-[4-[[[6,7-dimethoxy-2-(5-methyl-2-furyl)-4-quinolyl]amino]methyl]-1-piperidyl]pyrimidine-5-carbohydroxamic acid], the unbound share (fraction unbound) (in general, the share of the substance not bound to proteins or other matrix) at 4 h, 2 µM in data set [1] was 0.011 ± 0.001. Besides, on hERG potassium channels, the hERG hill slope worked out at 1.33 and the IC50 – broadly, the midpoint of a concentration-inhibition curve – was 16800 nM. Further, on HDAC8, the midpoint of inhibition, the IC50, lay at 83 nM and the inhibition (usually how much of the control response was suppressed) at 10 µM is 100%. At HDAC5, this compound yielded an IC50 of 59 nM and an inhibition at 10 µM of 97%.
With `COc1cc2nc(-c3cc(C)oc3C)cc(NCC3CCN(c4ncc(C(=O)NO)cn4)CC3)c2cc1OC` [CM-1758, 2-[4-[[[2-(2,5-dimethyl-3-furyl)-6,7-dimethoxy-4-quinolyl]amino]methyl] -1-piperidyl]pyrimidine-5-carbohydroxamic acid], the fraction unbound at 4 h, 2 µM in data set [1] is 0.01. The compound further displayed a hERG hill slope at hERG potassium channels of 0.99. The results for the IC50 on hERG potassium channels, at HDAC8 and against HDAC5 were 4890 nM, 200 nM and 270 nM, respectively. Also, the inhibition at 10 µM at HDAC8 came out at 100%; on HDAC5, 98%.
